Assay [1] relates to Bombyx mori. The experiment in a line: Antijuvenile hormone activity in third-instar larvae of Bombyx mori assessed as induction of precocious metamorphosis at 10 ug/larvae topically applied to the dorsal abdomen. The assay is classed as functional.
Assay [2] concerns Bombyx mori. The experiment in a line: Antijuvenile hormone activity in third-instar larvae of Bombyx mori assessed as induction of precocious metamorphosis at 40 ug/larvae topically applied to the dorsal abdomen. The assay is classed as functional.
Assay [3] relates to Bombyx mori. The experiment in a line: Antijuvenile hormone activity in third-instar larvae of Bombyx mori assessed as induction of precocious metamorphosis at 1 ug/larvae topically applied to the dorsal abdomen. The assay is classed as functional.
The test system of assay [4] is Bombyx mori. The experiment in a line: Juvenile hormone activity in allatectomized fourth-instar larvae of Bombyx mori assessed as number of larvae transformed into fifth instar larvae at 40 ug/larvae topically applied to the dorsal abdomen. The assay is classed as functional, organism-based.
Assay [5] has as its system Bombyx mori. The experiment in a line: Juvenile hormone activity in allatectomized fourth-instar larvae of Bombyx mori assessed as number of larvae transformed into larval-pupal intermediate at 40 ug/larvae topically applied to the dorsal abdomen. The assay is classed as functional, organism-based.
The test system of assay [6] is Bombyx mori. The experiment in a line: Juvenile hormone activity in allatectomized fourth-instar larvae of Bombyx mori assessed as number of larvae transformed into precocious pupa at 40 ug/larvae topically applied to the dorsal abdomen. The class given is functional, organism-based.
The subject of assay [7] is Bombyx mori. The experiment in a line: Juvenile hormone activity in allatectomized fourth-instar larvae of Bombyx mori assessed as number of larvae transformed into fifth instar larvae at 1 ug/larvae topically applied to the dorsal abdomen. The class given is functional, organism-based.
Assay [8] relates to Bombyx mori. As to the kind of experiment: Juvenile hormone activity in allatectomized fourth-instar larvae of Bombyx mori assessed as number of larvae transformed into larval-pupal intermediate at 1 ug/larvae topically applied to the dorsal abdomen. The class given is functional, organism-based.
Assay [9] concerns Bombyx mori. As to the kind of experiment: Juvenile hormone activity in allatectomized fourth-instar larvae of Bombyx mori assessed as number of larvae transformed into precocious pupa at 1 ug/larvae topically applied to the dorsal abdomen. The assay is classed as functional, organism-based.

Active and inactive are the calls of the source. No cut-off for these calls is given here.

As to `CCOC(=O)c1ccc(OC[C@@H]2Cc3ccccc3N2Cc2ccccc2)cc1`, the Activity with Bombyx mori [1] was 25%; with Bombyx mori [2], 28%; in the assay with Bombyx mori [3], 5%.
The corresponding values for `CCCCC(COc1ccc(C(=O)OCC)cc1)Cc1ccccc1` (stereo unspecified) are 34%, 12% and 90%.
`CCCCN1c2ccccc2C[C@H]1COc1ccc(C(=O)OCC)cc1`: the result with Bombyx mori [4] and in the assay with Bombyx mori [5] was inactive. Besides, the Activity came to 65% in the assay on Bombyx mori [1], 82% in the assay on Bombyx mori [2] and 5% with Bombyx mori [3]. The result in the assay with Bombyx mori [6] was Active.
`CCOC(=O)c1ccc(OCc2cc3ccccc3n2CC)cc1`: the Activity in the assay on Bombyx mori [1], in the assay with Bombyx mori [2] and in the assay on Bombyx mori [3] was 5% throughout.
For the molecule `COC(C)(C)CCC[C@H](C)C/C=C/C(C)=C/C(=O)OC(C)C`, in the assay with Bombyx mori [7], the result was Active. Also, the outcome with Bombyx mori [8] and in the assay with Bombyx mori [9] was inactive.
Take `CCOC(=O)c1ccc(OCc2cc3ccccc3n2Cc2ccccc2)cc1`: the Activity was determined as 73% in the assay with Bombyx mori [1], 84% in the assay with Bombyx mori [2] and 73% in the assay on Bombyx mori [3]. Besides, the result in the assay with Bombyx mori [5] was inactive.
`CCCCn1c(COc2ccc(C(=O)OCC)cc2)cc2ccccc21`: the result with Bombyx mori [4] was Active. Further, the Activity in the assay on Bombyx mori [1] was found to be 93%; in the assay on Bombyx mori [2], 94%; in the assay with Bombyx mori [3], 65%. Besides, the result in the assay with Bombyx mori [5] and with Bombyx mori [6] was inactive.
Take `CCCn1c(COc2ccc(C(=O)OCC)cc2)cc2ccccc21`: the values for the Activity in the assay with Bombyx mori [1], with Bombyx mori [2] and in the assay on Bombyx mori [3] were 95%, 90% and 67%, respectively.

For the origin of these results see ChEMBL document CHEMBL3046331, “Ethyl 4-[(1-substituted indol-2-yl)methoxy]benzoates and indoline derivatives: Anti-juvenile hormone and juvenile hormone activities” (2009).
